Series [1] has as its system barnyardgrass (Echinochloa crus-galli). Briefly: Test B flooded paddy test. It counts as in vivo. Conditions: Echinochloa crus-galli, 250 g ai/ha, Flood. Put shortly: (§1)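 Response scored visually against untreated controls, 0 = no effect and 100 = complete control, 13–15 d after treatment in the greenhouse. Compounds added to paddy water held 3 cm above soil surface. Treatment given at 2-leaf stage.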

Series [2] deals with ducksalad (Heteranthera limosa). Briefly: Test B flooded paddy test. It counts as in vivo. The conditions noted are these: Heteranthera limosa, 250 g ai/ha, Flood. In outline: as §1
A further series concerns rice (Oryra sativa). The series is described as follows: Test B flooded paddy test. The format is in vivo. Conditions: Oryza sativa, 250 g ai/ha, Flood. In outline: as §1
Series [3] has as its system sedge, umbrella (small-flower umbrella sedge, Cyperus difformis). The series is described as follows: Test B flooded paddy test. The format is in vivo. Conditions: Cyperus difformis, 250 g ai/ha, Flood. In outline:
as §1

Where [4] appears, read: 0 to 100 scale where 0 is no effect and 100 is complete control, read-out: Barnyardgrass plant response rating.
Where [5] appears, read: 0 to 100 scale where 0 is no effect and 100 is complete control, read-out: Ducksalad plant response rating.
[6] abbreviates: 0 to 100 scale where 0 is no effect and 100 is complete control, read-out: Rice plant response rating.
[7] abbreviates: 0 to 100 scale where 0 is no effect and 100 is complete control, read-out: Sedge, Umbrella plant response rating.
The mark [8] stands for this setting: scale of 0 to 100 where 0 is no effect and 100 is complete control, read-out: Barnyardgrass plant response rating.
[9] abbreviates: scale of 0 to 100 where 0 is no effect and 100 is complete control, read-out: Ducksalad plant response rating.
Setting [10] is: scale of 0 to 100 where 0 is no effect and 100 is complete control, read-out: Rice plant response rating.
Setting [11] is: scale of 0 to 100 where 0 is no effect and 100 is complete control, read-out: Sedge, Umbrella plant response rating.
Setting [12] is: 360 h, visually evaluated after 13 to 15 d, read-out: Plant response rating, Barnyardgrass (0 to 100 scale where 0 is no effect and 100 is complete control).
Setting [13] is: 360 h, visually evaluated after 13 to 15 d, read-out: Plant response rating, Ducksalad (0 to 100 scale where 0 is no effect and 100 is complete control).
Where [14] appears, read: 360 h, visually evaluated after 13 to 15 d, read-out: Plant response rating, Rice (0 to 100 scale where 0 is no effect and 100 is complete control).
[15] abbreviates: 360 h, visually evaluated after 13 to 15 d, read-out: Plant response rating, Sedge, Umbrella (0 to 100 scale where 0 is no effect and 100 is complete control).

Like-named read-outs stand apart in the source and are kept apart here.

One may read the melting point as the temperature, or range, at which the solid turns liquid.

Turning to `O=C1NCC(c2ccccc2)C1C(=O)Nc1ccc(C(F)(F)F)cc1` (stereo not shown) [Compound 1362], the melting point was in the range of 221 to 223 °C.
As to `Cc1cc([C@H]2CNC(=O)[C@@H]2C(=O)Nc2ccccc2S(C)(=O)=O)ccc1Cl` [Compound 1246], the pest or weed control at 250 g/ha in series [1] (setting [4]) stood at 0%; in series [2] (setting [5]), 100%; with rice (Oryra sativa) (setting [6]), 0%; in series [3] (setting [7]), 0%.
As to `N#Cc1cc([C@H]2CNC(=O)[C@@H]2C(=O)Nc2ccccc2F)ccc1F` [Compound 1199], the pest or weed control at 250 g/ha in series [1] (setting [4]) was 40%; in series [2] (setting [5]), 95%; in the series on rice (Oryra sativa) (setting [6]), 0%; in series [3] (setting [7]), 0%.
As for `CN1CC[C@H](c2cccc(Cl)c2)[C@@H](C(=O)Nc2ccccc2F)C1=O` [Compound 922], the pest or weed control at 250 g/ha (in series [1] (setting [8]); in series [2] (setting [9]); in the series with rice (Oryra sativa) (setting [10]); in series [3] (setting [11])) was 0% each time.
Consider `Cc1cc(F)cc([C@H]2CNC(=O)[C@@H]2C(=O)Nc2cccc(F)c2C)c1` [Compound 1308], for which the pest or weed control at 250 g/ha in series [1] (setting [4]) was determined as 65%; in series [2] (setting [5]), 100%; with rice (Oryra sativa) (setting [6]), 40%; in series [3] (setting [7]), 0%.
Regarding `Cc1ccc([C@H]2CN(C)C(=O)[C@@H]2C(=O)Nc2cccc(F)c2C)cc1C` [Compound 732], the pest or weed control at 250 g/ha in series [1] (setting [8]) was 45%; in series [2] (setting [9]), 100%; with rice (Oryra sativa) (setting [10]), 0%; in series [3] (setting [11]), 0%.
As for `COc1cc([C@H]2CN(C)C(=O)[C@@H]2C(=O)Nc2ccccc2S(C)(=O)=O)ccc1F` [Compound 1302], the pest or weed control at 250 g/ha came to 20% in series [1] (setting [4]), 80% in series [2] (setting [5]), 15% in the series on rice (Oryra sativa) (setting [6]) and 0% in series [3] (setting [7]).
In the case of `O=C1NC[C@H](c2ccc3c(c2)CCO3)[C@H]1C(=O)Nc1cccc(F)c1F` [Compound 785], the pest or weed control at 250 g/ha in series [1] (setting [8]) is 40%; in series [2] (setting [9]) it was 90%; in the series with rice (Oryra sativa) (setting [10]), 0%; in series [3] (setting [11]) it was 0%.
For the compound `CN1C[C@H](c2cc(F)c(F)c(F)c2)[C@@H](C(=O)Nc2ccc(F)c(F)c2F)C1=O` [Compound 757], the pest or weed control at 250 g/ha in series [1] (setting [8]) turned out to be 75%; in series [2] (setting [9]) it was 100%; in the series on rice (Oryra sativa) (setting [10]), 80%; in series [3] (setting [11]), 0%.
Regarding `N#Cc1ccc([C@H]2CNC(=O)[C@@H]2C(=O)Nc2cccc(F)c2F)cc1` [Compound 1206], the pest or weed control at 250 g/ha in series [1] (setting [4]) amounted to 0%; in series [2] (setting [5]), 95%; in the series with rice (Oryra sativa) (setting [6]), 15%; in series [3] (setting [7]), 0%.
As to `COc1cc(C(F)(F)F)ccc1[C@H]1CNC(=O)[C@@H]1C(=O)Nc1cccc(F)c1F` [Compound 1203], the pest or weed control at 250 g/ha in series [1] (setting [4]) turned out to be 30%; in series [2] (setting [5]), 100%; with rice (Oryra sativa) (setting [6]), 0%; in series [3] (setting [7]), 0%.
Take `COc1ccc([C@H]2CN(C)C(=O)[C@@H]2C(=O)Nc2ccccc2SC)c(OC)c1` [Compound 1216]: the pest or weed control at 250 g/ha (in series [1] (setting [4]); in series [2] (setting [5]); with rice (Oryra sativa) (setting [6]); in series [3] (setting [7])) was 0% throughout.
With `CN1CC[C@H](c2ccc(C(F)(F)F)cc2)[C@@H](C(=O)Nc2ccc(F)c(F)c2F)C1=O` [Compound 1226], the pest or weed control at 250 g/ha in series [1] (setting [4]) came out at 60%; in series [2] (setting [5]), 100%; in the series with rice (Oryra sativa) (setting [6]), 20%; in series [3] (setting [7]), 0%.
Regarding `N#Cc1cc([C@H]2CNC(=O)[C@]2(O)C(=O)Nc2cccc(F)c2F)ccc1F` [Compound 1374], the pest or weed control at 250 g/ha in series [1] (setting [12]) is 0%; in series [2] (setting [13]), 0%; in the series on rice (Oryra sativa) (setting [14]) it was 20%; in series [3] (setting [15]) it was 0%.
Regarding `CN1C[C@H](c2cccc(C(F)(F)F)c2)[C@@H](C(=O)Nc2ccc(F)cc2C(F)(F)F)C1=O` [Compound 1250], the pest or weed control at 250 g/ha in series [1] (setting [4]) worked out at 50%; in series [2] (setting [5]), 100%; in the series with rice (Oryra sativa) (setting [6]), 0%; in series [3] (setting [7]), 0%.
For the compound `CCc1ccc([C@H]2CNC(=S)[C@@H]2C(=O)Nc2cccc(F)c2C)cc1` [Compound 761], the pest or weed control at 250 g/ha in series [1] (setting [8]) turned out to be 0%; in series [2] (setting [9]), 95%; in the series with rice (Oryra sativa) (setting [10]), 0%; in series [3] (setting [11]) it was 0%.
In the case of `O=C1NC[C@H](c2ccc(OC(F)F)cc2)[C@H]1C(=O)Nc1ccccc1F` [Compound 778], the pest or weed control at 250 g/ha in series [1] (setting [8]) is 0%; in series [2] (setting [9]) it was 100%; in the series with rice (Oryra sativa) (setting [10]), 0%; in series [3] (setting [11]), 0%.
`CCc1ccc([C@H]2CNC(=S)[C@@H]2C(=O)Nc2ccccc2SC)cc1` [Compound 763]: the pest or weed control at 250 g/ha was determined as 0% in series [1] (setting [8]), 60% in series [2] (setting [9]), 0% in the series with rice (Oryra sativa) (setting [10]) and 0% in series [3] (setting [11]).
Consider `CN1C[C@H](c2ccc(C(F)(F)F)cc2)[C@@H](C(=O)Nc2ccccc2C#N)C1=O` [Compound 1379], for which the pest or weed control at 250 g/ha was 55% in series [1] (setting [12]), 100% in series [2] (setting [13]), 0% in the series with rice (Oryra sativa) (setting [14]) and 0% in series [3] (setting [15]).
In the case of `CN1C[C@H](c2ccc(C(F)(F)F)cc2)[C@@H](C(=O)Nc2cccc(C#N)c2F)C1=O` [Compound 1381], the pest or weed control at 250 g/ha in series [1] (setting [12]) turned out to be 65%; in series [2] (setting [13]), 100%; in the series with rice (Oryra sativa) (setting [14]), 0%; in series [3] (setting [15]), 0%.
On to `CN1CC[C@H](c2cccc(C(F)(F)F)c2)[C@@H](C(=O)Nc2ccc(F)c(F)c2F)C1=O` [Compound 1395], for which the pest or weed control at 250 g/ha in series [1] (setting [12]) worked out at 90%; in series [2] (setting [13]), 80%; with rice (Oryra sativa) (setting [14]) it was 10%; in series [3] (setting [15]), 0%.
As to `CSc1ccccc1NC(=O)[C@H]1C(=O)N(C)C[C@@H]1c1ccc(C#N)cc1` [Compound 1230], the pest or weed control at 250 g/ha in series [1] (setting [4]) worked out at 25%; in series [2] (setting [5]) it was 70%; with rice (Oryra sativa) (setting [6]), 0%; in series [3] (setting [7]), 0%.
`Cc1ccc([C@H]2CCN(C)C(=O)[C@@H]2C(=O)Nc2ccccc2C(F)(F)F)cc1` [Compound 1219]: the pest or weed control at 250 g/ha in series [1] (setting [4]) stood at 0%; in series [2] (setting [5]), 60%; in the series with rice (Oryra sativa) (setting [6]) it was 0%; in series [3] (setting [7]) it was 40%.
On to `CN1C[C@H](c2ccc(C(F)(F)F)nc2)[C@@H](C(=O)Nc2ccc(F)c(F)c2F)C1=O` [Compound 1373], for which the pest or weed control at 250 g/ha in series [1] (setting [12]) turned out to be 85%; in series [2] (setting [13]) it was 100%; in the series with rice (Oryra sativa) (setting [14]) it was 0%; in series [3] (setting [15]), 0%.
In the case of `C=CCN1C[C@H](c2ccc(OC)c(F)c2)[C@@H](C(=O)Nc2ccccc2C(F)(F)F)C1=O` [Compound 723], the pest or weed control at 250 g/ha (in series [1] (setting [8]); in series [2] (setting [9]); in the series on rice (Oryra sativa) (setting [10]); in series [3] (setting [11])) was 0% in each case.
In the case of `CN1CC[C@H](c2cccc(Cl)c2)[C@@H](C(=O)Nc2ccccc2S(C)(=O)=O)C1=O` [Compound 923], the pest or weed control at 250 g/ha (in series [1] (setting [8]); in series [2] (setting [9]); with rice (Oryra sativa) (setting [10]); in series [3] (setting [11])) was 0% in each case.
As to `CC(F)(F)c1cccc([C@H]2CNC(=O)[C@@H]2C(=O)Nc2ccccc2F)c1` [Compound 782], the pest or weed control at 250 g/ha was 65% in series [1] (setting [8]), 100% in series [2] (setting [9]), 0% in the series on rice (Oryra sativa) (setting [10]) and 0% in series [3] (setting [11]).
As for `O=C(Nc1cccc(F)c1F)[C@H]1C(=O)N(O)CC[C@@H]1c1ccc(F)cc1` [Compound 805], the pest or weed control at 250 g/ha (in series [1] (setting [8]); in series [2] (setting [9]); in the series with rice (Oryra sativa) (setting [10]); in series [3] (setting [11])) was 0% each time.

(Values after US12077503B2, “Substituted cyclic amides and their use as herbicides” (FMC CORPORATION, priority 2015, dated 2024).)
